We go through four compounds from patent US20250281489A1, “BIOMARKERS FOR PREDICTING SENSITIVITY TO CANCER TREATMENTS” (Genentech, Inc., priority 2011, published 2025).

The subject of assay [1] is mutant AKT1 enzymes (E17K, L52R and D323H). The experiment in a line: biochemical activity assay, recombinant full-length mutant AKT1 enzymes. Conditions: in words. An excerpt: (§1) Several ATP-competitive and allosteric small molecule inhibitors of AKT are in development and/or clinical trials (Mattmann et al., (2011). Expert Opin Ther Pat.; Pal et al., (2010). Expert Opin Investig Drugs 19, 1355-1366). Previous studies have shown that allosteric inhibitors of AKT require the presence of an intact PH-KD interface for their activity. Given that some AKT1 somatic mutants have impaired PH-KD contacts, it was predicted that allosteric inhibitors are likely to be less efficacious in inhibiting the activity of these mutants.

The target of the next assay is T1, AKT1 kinase domain alone (Homo sapiens, UniProt P31749).
T1 construct: using purified recombinant PH and kinase domains
The experiment in a line: in vitro biochemical assay, AKT1 kinase domain alone. Conditions: purified recombinant kinase domain, no PH domain. The protocol: (§2) To confirm that the reduced sensitivity of the mutants to allosteric inhibitors was due to the impaired PH-KD interactions, an in vitro biochemical reconstitution assay was performed using purified recombinant PH and kinase domains.

The test system of assay [2] is AKT1 kinase domain reconstituted with WT PH domain. Briefly: in vitro biochemical reconstitution assay, WT PH domain added to kinase domain. The protocol:
as §2

Assay [3] has as its system NIH3T3 cells expressing WT or AKT1 mutants. Briefly: cell based proliferation assay, NIH3T3 cells expressing WT or AKT1 mutants.
Description: as §1

For assay [4], the target named is T2, WT PH domain reconstituted with mutant D323H kinase domain (Homo sapiens, UniProt P31749, D323H).
T2 construct: using purified recombinant PH and kinase domains
Briefly: in vitro biochemical reconstitution assay, WT PH domain with D323H kinase domain. The conditions noted are these: in words. As to the method:
as §2

The next assay concerns Cyclin D1. The experiment in a line: reverse phase protein arrays of tumor biopsies from patients: Cyclin D1. Format: in vivo, human. Conditions: all 3 patients treated at 400 mg daily. The protocol: (§3) Core-needle tumor biopsies from patients treated with GDCC0068 were flash-frozen in OCT and sectioned into 8 um slices. Tissue was lysed in RPPA lysis buffer containing TPER, 300 mM NaCl and phosphatase inhibitors. Phosphoprotein signatures of the lysates were analysed using Reverse-Phase protein arrays: samples were printed on nitrocellulose slides and stained with Sypro to determine total protein concentrations. Each slide was stained with a different antibody at 4° C. overnight. The data was then normalized to total protein levels and spatial effects were removed using Quadrant median normalization. Decreases of 60%-70% in pPRAS40 and ˜50% decrease in Cyclin D1 (compared with baseline) occurred in all 3 patients treated at 400 mg daily. For methods and overview of RPPA see: Reverse phase protein microarrays advance to use in clinical trials, Molecular Oncology. 2010 December; 4(6):461-81, Mueller C et al. In certain embodiments, the cancer to be treated herein comprises one or more of AKT, PI3k, PTEN and HER2 mutations or AKT, PI3k, PTEN or HER2 abberant signaling. In one example, the cancer is gastric cancer comprising high pAKT activity and PTEN low or null status.

Assay [5] in a line: combo screens with 5FU/Cisplatin. In kind it is cell-based. Conditions: combination with Cisplatin+5FU; associated with PTEN, pAKT, PI3K mutation. An excerpt: FIG. 15 depicts results that the combination effects of GDC-0068 with Cisplatin+5FU are associated with AKT pathway activation.
For a further assay, the system named is pGSK-3β. The experiment in a line: surrogate PD biomarker assay: phospho-GSK-3β in platelet rich plasma of patients. Format: in vivo, human. Conditions: doses≥200 mg, ratio to pre-dose. The protocol:
Phospho-GSK-3b in Platelet rich plasma (PRP) was used as a surrogate PD biomarker to measure Akt pathway inhibition in patients after treatment with GDC-0068 at different time points over 22 days. Peripheral blood was collected in Vacutainer containing 0.38% of citrate as anti-coagulant. Blood was spun at 200 g for 15 min at room temperature. The PRP layer was carefully taken from the tube and then lysed in a buffer containing detergents, protease and phosphatase inhibitors. Phosphorylated and total GSK-3β levels in PRP lysates were measured using a phospho-GSK3β/total-GSK30 multiplexed MSD assay. pGSk-3β levels were normalized to total GSk-3β levels and post-dose inhibition of pGSk-3β was expressed as a ratio of the pre-dose levels for each patient.

The test system of assay [6] is cell lines with AKT pathway activation (PTEN loss, PI3K mutations). Briefly: combination with MEK inhibitor in cell lines, BLISS analysis. Format: cell-based. The conditions noted are these: in combination with a MEK inhibitor (GDC-0973). From the text:
BLISS analysis indicates broad synergy for GDC-0068 in combination with a MEK inhibitor (GDC-0973).

The subject of the next assay is xenograft models. Briefly: single agent activity in xenograft models. In kind it is in vivo. Conditions: models with AKT pathway activation and without MEK pathway activation.
In a further assay the test system is pPRAS40. The experiment in a line: reverse phase protein arrays of tumor biopsies from patients: pPRAS40. Format: in vivo, human. The conditions noted are these: all 3 patients treated at 400 mg daily. The protocol: as §3
Another assay has as its target T3, WT AKT1 enzyme (Homo sapiens, UniProt P31749).
T3 construct: were tested on recombinant full-length WT and mutant AKT1 enzymes
Briefly: biochemical activity assay, recombinant full-length WT AKT1 enzyme. The conditions noted are these: in words. An excerpt: Several ATP-competitive and allosteric small molecule inhibitors of AKT are in development and/or clinical trials (Mattmann et al., (2011). Expert Opin Ther Pat.; Pal et al., (2010). Expert Opin Investig Drugs 19, 1355-1366).

pIC50: −log10 of the molar value.

T3 sequence (P31749 whole entry): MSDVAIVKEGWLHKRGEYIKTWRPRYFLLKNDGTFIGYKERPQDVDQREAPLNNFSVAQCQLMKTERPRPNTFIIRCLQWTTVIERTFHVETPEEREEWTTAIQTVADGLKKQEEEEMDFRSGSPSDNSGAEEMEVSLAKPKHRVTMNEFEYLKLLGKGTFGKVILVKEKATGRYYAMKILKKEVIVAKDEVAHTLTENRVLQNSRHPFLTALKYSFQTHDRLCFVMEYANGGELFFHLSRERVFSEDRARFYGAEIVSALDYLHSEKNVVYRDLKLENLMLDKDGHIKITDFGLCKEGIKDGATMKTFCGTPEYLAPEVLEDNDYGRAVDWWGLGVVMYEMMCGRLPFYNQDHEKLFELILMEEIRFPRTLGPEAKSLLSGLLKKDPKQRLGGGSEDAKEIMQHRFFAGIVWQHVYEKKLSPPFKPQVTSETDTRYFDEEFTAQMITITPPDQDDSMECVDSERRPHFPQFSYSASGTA
T1 sequence (P31749 150-408 limits assumed): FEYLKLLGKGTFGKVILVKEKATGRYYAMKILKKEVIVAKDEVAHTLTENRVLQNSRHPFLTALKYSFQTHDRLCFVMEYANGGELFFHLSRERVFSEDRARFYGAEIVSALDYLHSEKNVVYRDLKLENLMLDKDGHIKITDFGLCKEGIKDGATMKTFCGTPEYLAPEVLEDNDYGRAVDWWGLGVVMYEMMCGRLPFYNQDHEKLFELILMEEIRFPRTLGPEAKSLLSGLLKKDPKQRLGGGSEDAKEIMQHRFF
T2 sequence (P31749 150-408 D323H limits assumed): as the sequence (P31749 150-408 limits assumed) above, with D174H counted along it

Consider `NC(=O)[C@@H]1CCCCN1CCCN(C(=O)c1cccs1)c1nc(-c2ccncc2)cs1` [GNE-929], for which, in assay [1], the “effectiveness against recombinant full-length mutant enzymes compared to WT AKT1” value is recorded as “less effective”.
One may read the pIC50 as the IC50 on a negative log10 scale, so that one unit is a factor of ten. Take `O=c1[nH]c2ccccc2n1C1CCN(Cc2ccc(-c3nc4cc5[nH]cnc5cc4nc3-c3ccccc3)cc2)CC1` [Inhibitor VIII]: the “blocking activity of AKT1 kinase domain alone” value on AKT1 kinase domain alone is “unable to block its activity”. For the same compound, the “increase in IC50 for the reconstituted enzyme compared to the full length WT enzyme” value in assay [2] was “three fold”. Also, the pIC50 in assay [2] (reconstituted enzyme, WT PH domain + kinase domain) is 6.62. Also, the “less effective at blocking proliferation of cells expressing mutant AKT1 compared to WT AKT” value in assay [3] is “at least 50%”. In assay [4], the “activity when WT PH domain was reconstituted with mutant D323H kinase domain” value is on record as “no activity”.
Turning to `CC(C)NC[C@@H](C(=O)N1CCN(c2ncnc3c2[C@H](C)C[C@H]3O)CC1)c1ccc(Cl)cc1` [GDC-0068], the “decrease in Cyclin D1 compared with baseline” value in the assay with Cyclin D1 is given as ~50%. For the same compound, the combination effect entry in assay [5] is “additive effects”. Also, the “decrease in pGSK3β level” value with pGSK-3β is ≥ 75%. In addition, the “combination effect, BLISS analysis” value in assay [6] is listed as “broad synergy”. The “single agent efficacy in xenograft models” value in the assay on xenograft models is recorded as “Robust efficacy”. Also, the “decrease in pPRAS40 compared with baseline” value in the assay with pPRAS40 is reported as 60%-70%.
As to `CCn1c(-c2nonc2N)nc2c(C#CC(C)(C)O)ncc(OC[C@H]3CCCNC3)c21` [GSK690693], the “blocking the activity of the mutant enzymes” value in [1] (E17K, L52R and D323H) is reported as “effective”. Moreover, the “blocking the activity of the WT AKT1 enzyme” value at WT AKT1 enzyme was “effective”.
